Key:
barnyard grass [1] = assay: Test Example 4: herbicidal effect by soil treatment (Table 19, symbol H); format: in vivo, barnyard grass (Echinochloa crus-galli); conditions: amount of applied herbicide 320 g/ha
How it was run: (§1)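 Herbicidal effect was rated 3 weeks after treatment, using the scoring criteria of an earlier test. The compound, formulated as an emulsion and diluted in water to a set herbicide amount, had been sprayed uniformly on soil over freshly sown seeds. Growth took place in a greenhouse at 25° C. to 30° C.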

Italian ryegrass [2] = assay: Test Example 4: herbicidal effect by soil treatment (Table 19, symbol K); format: in vivo, Italian ryegrass (Lolium multiflorum); conditions: amount of applied herbicide 320 g/ha
How it was run: as §1

wild oat [3] = assay: Test Example 4: herbicidal effect by soil treatment (Table 19, symbol I); format: in vivo, wild oat (Avena fatua); conditions: amount of applied herbicide 320 g/ha
How it was run: as §1

false cleavers [4] = assay: Test Example 5: herbicidal effect by foliage application, plastic box (Table 20, symbol Q); format: in vivo, false cleavers (Galium spurium); conditions: foliage application, 320 g/ha
How it was run: (§2)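 Foliar spray test: emulsion formulation diluted in water to a set application rate, sprayed onto 14-day-old plants raised in diluvial soil at 25° C to 30° C under glass. Both herbicidal effect and crop effect rated visually three weeks later.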

Chinese sprangletop = assay: Test Example 3: herbicidal effect by foliage application, Wagner pot (Table 18, symbol D); format: in vivo, chinese sprangletop (Leptochloa chinensis); conditions: 320 g/ha
How it was run: (§3)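 Plants were sown in alluvial soil held under 0.1–0.5 cm standing water and grown 14 days in a greenhouse at 25–30 °C. An emulsifiable formulation, water-diluted to the set dose, was then sprayed onto the foliage, and effects were scored three weeks later using previously defined criteria.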

Japanese bulrush = assay: Test Example 2: herbicidal activity, application during weed generation under submerged conditions (Table 17, symbol B); format: in vivo, Japanese bulrush (Schoenoplectus juncoides); conditions: AAH 320 g/ha; application during weed generation, submerged conditions
How it was run: (§4)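 Herbicide emulsion, diluted with water to the chosen amount, is applied onto 4 cm floodwater over alluvial soil where the weeds were co-sown and raised at 25–30° C. Application timing: 1–2 leaves. Assessment: three weeks afterwards.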

lambsquarters [5] = assay: Test Example 4: herbicidal effect by soil treatment (Table 19, symbol O); format: in vivo, lambsquarters (Chenopodium album); conditions: amount of applied herbicide 320 g/ha
How it was run: as §1

false cleavers [6] = assay: Test Example 4: herbicidal effect by soil treatment (Table 19, symbol Q); format: in vivo, false cleavers (Galium spurium); conditions: amount of applied herbicide 320 g/ha
How it was run: as §1

blackgrass = assay: Test Example 5: herbicidal effect by foliage application, plastic box (Table 20, symbol J); format: in vivo, blackgrass (Alopecurus myosuroides); conditions: foliage application, 320 g/ha
How it was run: as §2

chickweed [7] = assay: Test Example 5: herbicidal effect by foliage application, plastic box (Table 20, symbol P); format: in vivo, common chickweed (Stellaria media); conditions: foliage application, 320 g/ha
How it was run: as §2

southern crabgrass [8] = assay: Test Example 4: herbicidal effect by soil treatment (Table 19, symbol F); format: in vivo, southern crabgrass (Digitaria ciliaris); conditions: amount of applied herbicide 320 g/ha
How it was run: as §1

oval-leafed pondweed = assay: Test Example 2: herbicidal activity, application during weed generation under submerged conditions (Table 17, symbol C); format: in vivo, oval-leafed pondweed (Monochoria vaginalis); conditions: AAH 320 g/ha; application during weed generation, submerged conditions
How it was run: as §4

late watergrass = assay: Test Example 2: herbicidal activity, application during weed generation under submerged conditions (Table 17, symbol A); format: in vivo, late watergrass (Echinochloa oryzicola); conditions: AAH 320 g/ha; application during weed generation, submerged conditions
How it was run: as §4

velvetleaf [9] = assay: Test Example 5: herbicidal effect by foliage application, plastic box (Table 20, symbol M); format: in vivo, velvetleaf (Abutilon theophrasti); conditions: foliage application, 320 g/ha
How it was run: as §2

green foxtail [10] = assay: Test Example 5: herbicidal effect by foliage application, plastic box (Table 20, symbol G); format: in vivo, green foxtail (Setaria viridis); conditions: foliage application, 320 g/ha
How it was run: as §2

barnyard grass [11] = assay: Test Example 5: herbicidal effect by foliage application, plastic box (Table 20, symbol H); format: in vivo, barnyard grass (Echinochloa crus-galli); conditions: foliage application, 320 g/ha
How it was run: as §2

redroot pigweed [12] = assay: Test Example 4: herbicidal effect by soil treatment (Table 19, symbol N); format: in vivo, redroot pigweed (Amaranthus retroflexus); conditions: amount of applied herbicide 320 g/ha
How it was run: as §1

windgrass [13] = assay: Test Example 5: herbicidal effect by foliage application, plastic box (Table 20, symbol L); format: in vivo, windgrass (Apera spica-venti); conditions: foliage application, 320 g/ha
How it was run: as §2

persian speedwell [14] = assay: Test Example 5: herbicidal effect by foliage application, plastic box (Table 20, symbol R); format: in vivo, Persian speedwell (Veronica persica); conditions: foliage application, 320 g/ha
How it was run: as §2

redroot pigweed [15] = assay: Test Example 5: herbicidal effect by foliage application, plastic box (Table 20, symbol N); format: in vivo, redroot pigweed (Amaranthus retroflexus); conditions: foliage application, 320 g/ha
How it was run: as §2

rice flat sedge = assay: Test Example 3: herbicidal effect by foliage application, Wagner pot (Table 18, symbol E); format: in vivo, rice flat sedge (Cyperus iria); conditions: 320 g/ha
How it was run: as §3

green foxtail [16] = assay: Test Example 4: herbicidal effect by soil treatment (Table 19, symbol G); format: in vivo, green foxtail (Setaria viridis); conditions: amount of applied herbicide 320 g/ha
How it was run: as §1

southern crabgrass [17] = assay: Test Example 5: herbicidal effect by foliage application, plastic box (Table 20, symbol F); format: in vivo, southern crabgrass (Digitaria ciliaris); conditions: foliage application, 320 g/ha
How it was run: as §2

lambsquarters [18] = assay: Test Example 5: herbicidal effect by foliage application, plastic box (Table 20, symbol O); format: in vivo, lambsquarters (Chenopodium album); conditions: foliage application, 320 g/ha
How it was run: as §2

Italian ryegrass [19] = assay: Test Example 5: herbicidal effect by foliage application, plastic box (Table 20, symbol K); format: in vivo, Italian ryegrass (Lolium multiflorum); conditions: foliage application, 320 g/ha
How it was run: as §2

velvetleaf [20] = assay: Test Example 4: herbicidal effect by soil treatment (Table 19, symbol M); format: in vivo, velvetleaf (Abutilon theophrasti); conditions: amount of applied herbicide 320 g/ha
How it was run: as §1

chickweed [21] = assay: Test Example 4: herbicidal effect by soil treatment (Table 19, symbol P); format: in vivo, common chickweed (Stellaria media); conditions: amount of applied herbicide 320 g/ha
How it was run: as §1

persian speedwell [22] = assay: Test Example 4: herbicidal effect by soil treatment (Table 19, symbol R); format: in vivo, Persian speedwell (Veronica persica); conditions: amount of applied herbicide 320 g/ha
How it was run: as §1

barnyard grass [23] = assay: Test Example 3: herbicidal effect by foliage application, Wagner pot (Table 18, symbol H); format: in vivo, barnyard grass (Echinochloa crus-galli); conditions: 320 g/ha
How it was run: as §3

wild oat [24] = assay: Test Example 5: herbicidal effect by foliage application, plastic box (Table 20, symbol I); format: in vivo, wild oat (Avena fatua); conditions: foliage application, 320 g/ha
How it was run: as §2

windgrass [25] = assay: Test Example 4: herbicidal effect by soil treatment (Table 19, symbol L); format: in vivo, windgrass (Apera spica-venti); conditions: amount of applied herbicide 320 g/ha
How it was run: as §1

[26] = evaluated three weeks after application

## Cc1nn(C)c(=O)c(-c2c(-c3ccc4c(c3)OCC4)sc3ccccc23)c1O [1-085]
Barnyard grass [1]
  herbicidal effect rating, H: barnyard grass: 4 (Herbicidal rate of 70% or more and less than 90%)
Italian ryegrass [2]
  herbicidal effect rating, K: Italian ryegrass: 5 (Herbicidal rate of 90% or more (almost completely withered))
Wild oat [3]
  herbicidal effect rating, I: wild oat: 0 (Herbicidal rate of 5% or less (almost no effect))
False cleavers [4]; three weeks after application
  herbicidal effect grade, Q: false cleavers: 5 (Herbicidal rate of 90% or more (almost completely withered))
Chinese sprangletop
  herbicidal effect on D (Chinese sprangletop), rating 0-5: 4 (Herbicidal rate of 70% or more and less than 90%)
Japanese bulrush
  herbicidal effect rating, B: Japanese bulrush: 1 (Herbicidal rate of 5% or more and less than 20%)
Lambsquarters [5]
  herbicidal effect rating, O: lambsquarters: 5 (Herbicidal rate of 90% or more (almost completely withered))
False cleavers [6]
  herbicidal effect rating, Q: false cleavers: 4 (Herbicidal rate of 70% or more and less than 90%)
blackgrass; three weeks after application
  herbicidal effect grade, J: blackgrass: 4 (Herbicidal rate of 70% or more and less than 90%)
Chickweed [7]; three weeks after application
  herbicidal effect grade, P: chickweed: 5 (Herbicidal rate of 90% or more (almost completely withered))
Southern crabgrass [8]
  herbicidal effect rating, F: southern crabgrass: 5 (Herbicidal rate of 90% or more (almost completely withered))
oval-leafed pondweed
  herbicidal effect rating, C: oval-leafed pondweed: 2 (Herbicidal rate of 20% or more and less than 40%)
Late watergrass
  herbicidal effect rating, A: late watergrass: 1 (Herbicidal rate of 5% or more and less than 20%)
Velvetleaf [9]; three weeks after application
  herbicidal effect grade, M: velvetleaf: 5 (Herbicidal rate of 90% or more (almost completely withered))
Green foxtail [10]; three weeks after application
  herbicidal effect grade, G: green foxtail: 5 (Herbicidal rate of 90% or more (almost completely withered))
Barnyard grass [11]; three weeks after application
  herbicidal effect grade, H: barnyard grass: 5 (Herbicidal rate of 90% or more (almost completely withered))
Redroot pigweed [12]
  herbicidal effect rating, N: redroot pigweed: 5 (Herbicidal rate of 90% or more (almost completely withered))
Windgrass [13]; three weeks after application
  herbicidal effect grade, L: windgrass: 5 (Herbicidal rate of 90% or more (almost completely withered))
Persian speedwell [14]; three weeks after application
  herbicidal effect grade, R: persian speedwell: 5 (Herbicidal rate of 90% or more (almost completely withered))
Redroot pigweed [15]; three weeks after application
  herbicidal effect grade, N: redroot pigweed: 5 (Herbicidal rate of 90% or more (almost completely withered))
Rice flat sedge
  herbicidal effect on E (rice flat sedge), rating 0-5: 5 (Herbicidal rate of 90% or more (almost completely withered))
Green foxtail [16]
  herbicidal effect rating, G: green foxtail: 4 (Herbicidal rate of 70% or more and less than 90%)
Southern crabgrass [17]; three weeks after application
  herbicidal effect grade, F: southern crabgrass: 5 (Herbicidal rate of 90% or more (almost completely withered))
Lambsquarters [18]; three weeks after application
  herbicidal effect grade, O: lambsquarters: 5 (Herbicidal rate of 90% or more (almost completely withered))
Italian ryegrass [19]; three weeks after application
  herbicidal effect grade, K: Italian ryegrass: 5 (Herbicidal rate of 90% or more (almost completely withered))
Velvetleaf [20]
  herbicidal effect rating, M: velvetleaf: 3 (Herbicidal rate of 40% or more and less than 70%)
Chickweed [21]
  herbicidal effect rating, P: chickweed: 4 (Herbicidal rate of 70% or more and less than 90%)
Persian speedwell [22]
  herbicidal effect rating, R: persian speedwell: 4 (Herbicidal rate of 70% or more and less than 90%)
Barnyard grass [23]
  herbicidal effect on H (barnyard grass), rating 0-5: 5 (Herbicidal rate of 90% or more (almost completely withered))
Wild oat [24]; three weeks after application
  herbicidal effect grade, I: wild oat: 4 (Herbicidal rate of 70% or more and less than 90%)

## CCCC(=O)Oc1c(C)nn(C)c(=O)c1-c1c(-c2ccc3c(c2)OCO3)sc2ccc(Cl)cc12 [2-126]
Barnyard grass [1]
  H: barnyard grass, herbicidal effect rating: 0 (Herbicidal rate of 5% or less (almost no effect))
Italian ryegrass [2]
  K: Italian ryegrass, herbicidal effect rating: 0 (Herbicidal rate of 5% or less (almost no effect))
Wild oat [3]
  I: wild oat, herbicidal effect rating: 0 (Herbicidal rate of 5% or less (almost no effect))
False cleavers [4]; [26]
  herbicidal effect on Q: false cleavers: 2 (Herbicidal rate of 20% or more and less than 40%)
Japanese bulrush
  herbicidal effect rating, B: Japanese bulrush: 0 (Herbicidal rate of 5% or less (almost no effect))
Lambsquarters [5]
  O: lambsquarters, herbicidal effect rating: 2 (Herbicidal rate of 20% or more and less than 40%)
False cleavers [6]
  Q: false cleavers, herbicidal effect rating: 0 (Herbicidal rate of 5% or less (almost no effect))
blackgrass; [26]
  herbicidal effect on J: blackgrass: 0 (Herbicidal rate of 5% or less (almost no effect))
Chickweed [7]; [26]
  herbicidal effect on P: chickweed: 2 (Herbicidal rate of 20% or more and less than 40%)
Southern crabgrass [8]
  F: southern crabgrass, herbicidal effect rating: 0 (Herbicidal rate of 5% or less (almost no effect))
oval-leafed pondweed
  herbicidal effect rating, C: oval-leafed pondweed: 2 (Herbicidal rate of 20% or more and less than 40%)
Late watergrass
  herbicidal effect rating, A: late watergrass: 0 (Herbicidal rate of 5% or less (almost no effect))
Velvetleaf [9]; [26]
  herbicidal effect on M: velvetleaf: 3 (Herbicidal rate of 40% or more and less than 70%)
Green foxtail [10]; [26]
  herbicidal effect on G: green foxtail: 0 (Herbicidal rate of 5% or less (almost no effect))
Barnyard grass [11]; [26]
  herbicidal effect on H: barnyard grass: 0 (Herbicidal rate of 5% or less (almost no effect))
Redroot pigweed [12]
  N: redroot pigweed, herbicidal effect rating: 0 (Herbicidal rate of 5% or less (almost no effect))
Windgrass [13]; [26]
  herbicidal effect on L: windgrass: 0 (Herbicidal rate of 5% or less (almost no effect))
Persian speedwell [14]; [26]
  herbicidal effect on R: persian speedwell: 5 (Herbicidal rate of 90% or more (almost completely withered))
Redroot pigweed [15]; [26]
  herbicidal effect on N: redroot pigweed: 1 (Herbicidal rate of 5% or more and less than 20%)
Green foxtail [16]
  G: green foxtail, herbicidal effect rating: 0 (Herbicidal rate of 5% or less (almost no effect))
Southern crabgrass [17]; [26]
  herbicidal effect on F: southern crabgrass: 0 (Herbicidal rate of 5% or less (almost no effect))
Lambsquarters [18]; [26]
  herbicidal effect on O: lambsquarters: 3 (Herbicidal rate of 40% or more and less than 70%)
Italian ryegrass [19]; [26]
  herbicidal effect on K: Italian ryegrass: 0 (Herbicidal rate of 5% or less (almost no effect))
Velvetleaf [20]
  M: velvetleaf, herbicidal effect rating: 0 (Herbicidal rate of 5% or less (almost no effect))
Chickweed [21]
  P: chickweed, herbicidal effect rating: 3 (Herbicidal rate of 40% or more and less than 70%)
Windgrass [25]
  L: windgrass, herbicidal effect rating: 0 (Herbicidal rate of 5% or less (almost no effect))
Persian speedwell [22]
  R: persian speedwell, herbicidal effect rating: 4 (Herbicidal rate of 70% or more and less than 90%)
Wild oat [24]; [26]
  herbicidal effect on I: wild oat: 0 (Herbicidal rate of 5% or less (almost no effect))

— patent US20230085307A1, “PYRIDAZINONE COMPOUND AND HERBICIDE” (NISSAN CHEMICAL CORPORATION, priority 2019, published 2023)
